Data set [1] concerns human non small cell lung cancer cell line (NCI-H2444). Nature of the data set: Antitumor activity evaluation, cell viability by Cell Counting Kit-8 (WST-8). Type of data set: cell-based. The method, then: (§1) The cell viability (%) was determined as indicated hereinbelow.
Data set [2] relates to human non small cell lung cancer cell line (HCC827). The data set is described as above. Type of data set: cell-based. The method, then: as §1
The test system of data set [3] is tumor cells tested in the present Test Example. Nature of the data set: Evaluation test on antitumor activities of synthetic peptides, overall finding. Type of data set: cell-based, human. The note with it: compared to comparative samples 3 to 5. The procedure: as §1
The subject of data set [4] is human alveolar basal epithelial adenocarcinoma cell line (A549). The settings on record: 48 hours, relative to medium without peptide = 100%. The procedure:
(§2) Some of the sample peptides synthesized in Test Example 1 were evaluated for antitumor activity on several types of cultured tumor cells.
(§3) Specifically, test tumor cells used were currently commercially available human non small cell lung cancer cell line (NCI-H2444), human non small cell lung cancer cell line (HCC827), human alveolar basal epithelial adenocarcinoma cell line (A549), human small cell lung cancer cell line (NCI-H446), human melanoma cell line (A2058) and human breast adenocarcinoma cell line (MDA-MB-231). As a comparison, a commercially available cultured normal human mammary epithelial cell line (MCF-12F) was used.
The above six cell lines were cultured in each of the media indicated above and the number of cells was adjusted to be approximately 5×10^3 per well in a 96-well plate. The amount of the medium was 100 μL per well. […]
Thereafter, peptide-containing test media were respectively prepared for each concentration so that the concentration of any of the sample peptides to be evaluated was either 12.5 μM or 25 μM, and were supplied to wells (namely, wells after pre-incubation above) in which cells to be evaluated were cultured at 90 μL per well. […]
The number (n) of test wells per each peptide concentration in the test section to which peptides were added was 3. […] The cell viability (%) was determined as indicated hereinbelow. […]

A short description of data set [5]: in vitro. Type of data set: cell-based. The note with it: human. The procedure: (3) cultured normal human mammary epithelial cell line (MCF-12F):
DMEM/F12 medium (product from Wako Pure Chemical Industries, Ltd.) containing 20 ng/mL recombinant EGF, 10 μg/mL insulin, 0.5 μg/mL hydrocortisone and 10% FBS.
as §1

Data set [6] relates to human small cell lung cancer cell line (NCI-H446). Type of data set: cell-based. The settings on record: 48 h. The method, then: as §1
Data set [7] relates to human breast adenocarcinoma cell line (MDA-MB-231). Type of data set: cell-based. The note with it: 48 h. The method, then: as §2, §3
(§4) (2) human melanoma cell line (A2058) and human breast adenocarcinoma cell line (MDA-MB-231):
(§5) DMEM medium (product from Wako Pure Chemical Industries, Ltd.) containing 2 mM L-glutamine, 0.1 mM non-essential amino acids, 50 units/mL penicillin, 50 μg/mL streptomycin and 10% FBS; and
(§6) The above six cell lines were cultured in each of the media indicated above and the number of cells was adjusted to be approximately 5×10^3 per well in a 96-well plate. The amount of the medium was 100 μL per well.
(§7) The 96-well plate was placed in a CO2 incubator and pre-incubated under conditions of 37° C. and 5% CO2 for approximately one day (21 hours to 24 hours).
(§8) Thereafter, peptide-containing test media were respectively prepared for each concentration so that the concentration of any of the sample peptides to be evaluated was either 12.5 μM or 25 μM, and were supplied to wells (namely, wells after pre-incubation above) in which cells to be evaluated were cultured at 90 μL per well. The 96-well plate was placed back in the CO2 incubator and incubated under conditions of 37° C. and 5% CO2 for 48 hours.
(§9) The number (n) of test wells per each peptide concentration in the test section to which peptides were added was 3. Therefore, the values indicated in the result section in the table hereinbelow are averages of results obtained from 3 test wells. The cell viability (%) was determined as indicated hereinbelow.
(§10) After a 48-hour incubation, the medium in the wells was replaced by 100 μL fresh medium without peptide, and 10 μL of a reagent for cell proliferation measurement “Cell Counting Kit-8” (product from Dojindo Laboratories) containing “water-soluble tetrazolium salt (WST-8)” as a chromogenic reagent was added to each well. The 96-well plate was then placed back in the CO2 incubator and incubated under conditions of 37° C. and 5% CO2 for 1.5 hours to 2 hours.
(§11) After completion of the incubation, the cell culture medium to which the reagent was added was recovered and the cell viability (%) was evaluated by a colorimetric method in which the absorbance at a wavelength of 450 nm (the value corrected with the absorbance at a wavelength 650 nm: A450-A650) due to reduction of the tetrazolium salt was measured. Specifically, the cell viability (%) of each test cell line was calculated from the measured absorbance as a relative value to the measured value (measured absorbance) in the comparative test section in which the incubation over 48 hours as above was carried out only with a medium without peptide, that was regarded as 100% of the cell viability.

Data set [8] relates to human melanoma cell line (A2058). Type of data set: cell-based. The settings on record: 48 h. The procedure: as §2, §3, §4, §5, §6, §7, §8, §9, §10, §11

Read-outs that look alike come from different tables or passages of the source. Where a SMILES comes first, the peptide text is derived from it.

These results are taken from patent US11352408B2, “Antitumor peptide having PD-1 signal sequence and utilization thereof” (TOAGOSEI CO.,LTD., priority 2017, dated 2022).

With `CC[C@H](C)[C@H](NC(=O)[C@H](CCC(N)=O)NC(=O)[C@@H](N)CCSC)C(=O)N1CCC[C@H]1C(=O)N[C@@H](CCC(N)=O)C(=O)N[C@@H](C)C(=O)N1CCC[C@H]1C(=O)N[C@@H](Cc1c[nH]c2ccccc12)C(=O)N1CCC[C@H]1C(=O)N[C@H](C(=O)N[C@H](C(=O)N[C@@H](Cc1c[nH]c2ccccc12)C(=O)N[C@@H](C)C(=O)N[C@H](C(=O)N[C@@H](CC(C)C)C(=O)N[C@@H](CCC(N)=O)C(=O)N[C@@H](CC(C)C)C(=O)NCC(=O)N[C@@H](Cc1c[nH]c2ccccc12)C(=O)N[C@@H](CCCNC(=N)N)C(=O)N[C@@H](CCCNC(=N)N)C(=O)N[C@@H](CCCCN)C(=O)N[C@@H](CCCCN)C(=O)N[C@@H](CCCNC(=N)N)C(=O)N[C@@H](CCCNC(=N)N)C(=O)N[C@@H](CCC(N)=O)C(=O)N[C@@H](CCCNC(=N)N)C(=O)N[C@@H](CCCNC(=N)N)C(=O)N[C@@H](CCCNC(=N)N)C(N)=O)C(C)C)C(C)C)C(C)C` [Sample 2] (H-MQIPQAPWPVVWAVLQLGWRRKKRRQRRR-NH2; N-terminus assumed), the “Cell viability (%)” value stood at 50.4% in data set [1] (NCI-H2444, test peptide concentration 12.5 μM, 48 hours, relative to medium without peptide = 100%); 3.6% in data set [1] (NCI-H2444, test peptide concentration 25.0 μM, 48 hours, relative to medium without peptide = 100%); 62.9% in data set [2] (HCC827, test peptide concentration 12.5 μM, 48 hours, relative to medium without peptide = 100%); 4.9% in data set [2] (HCC827, test peptide concentration 25.0 μM, 48 hours, relative to medium without peptide = 100%); 52.4% in data set [4] (test peptide concentration 12.5 μM); 9.1% in data set [4] (test peptide concentration 25.0 μM). In addition, the “antitumor activity (inhibitory activity of proliferation of tumor cells)” value in data set [3] was “excellent antitumor activity”.
Molecule `CC[C@H](C)[C@H](NC(=O)[C@H](CCC(N)=O)NC(=O)[C@@H](N)CCSC)C(=O)N1CCC[C@H]1C(=O)N[C@@H](CCC(N)=O)C(=O)N[C@@H](C)C(=O)N1CCC[C@H]1C(=O)N[C@@H](Cc1c[nH]c2ccccc12)C(=O)N1CCC[C@H]1C(=O)N[C@H](C(=O)N[C@H](C(=O)N[C@@H](Cc1c[nH]c2ccccc12)C(=O)N[C@@H](C)C(=O)N[C@H](C(=O)N[C@@H](CC(C)C)C(=O)N[C@@H](CCC(N)=O)C(=O)N[C@@H](CC(C)C)C(=O)NCC(=O)N[C@@H](Cc1c[nH]c2ccccc12)C(=O)N[C@@H](CCCNC(=N)N)C(=O)N[C@@H](CCCCN)C(=O)N[C@@H](CCCCN)C(=O)N[C@@H](CCCNC(=N)N)C(=O)N[C@H](C(=O)N[C@@H](CC(C)C)C(=O)N[C@@H](CCCNC(=N)N)C(=O)N[C@@H](CCCCN)C(=O)N[C@@H](CC(N)=O)C(=O)N[C@@H](CC(=O)O)C(=O)N[C@@H](CCCNC(=N)N)C(=O)N[C@@H](CCCCN)C(=O)N[C@@H](CCCCN)C(=O)N[C@@H](CCCNC(=N)N)C(N)=O)[C@@H](C)O)C(C)C)C(C)C)C(C)C` [Sample 1] (H-MQIPQAPWPVVWAVLQLGWRKKRTLRKNDRKKR-NH2; N-terminus assumed) showed a viability at 48 h, 12.5 µM in data set [5] of 97.4%. In addition, the viability at 48 h, 25 µM in data set [5] stood at 62.3%. Besides, the “Cell viability (%)” value is listed as 2.5% in data set [6] (12.5 µM); 0.5% in data set [6] (25 µM); 59.6% in data set [1] (human, 48 h, 12.5 µM); 6.8% in data set [1] (human, 48 h, 25 µM); 49.8% in data set [2] (human, 48 h, 12.5 µM); 11.8% in data set [2] (human, 48 h, 25 µM). In addition, the “Cell viability (%)” value in data set [7] (12.5 µM) is 63.1%; in data set [7] (25 µM), 9.9%; in data set [8] (12.5 µM) it was 50.4%; in data set [8] (25 µM), 6.7%. In data set [3], the “antitumor activity (inhibitory activity of proliferation of tumor cells)” value is listed as “excellent antitumor activity”.
Turning to `CC[C@H](C)[C@H](NC(=O)[C@H](CC(C)C)NC(=O)[C@H](CC(C)C)NC(=O)[C@H](CCSC)NC(=O)[C@H](CCC(N)=O)NC(=O)[C@H](CCC(N)=O)NC(=O)[C@H](CCC(N)=O)NC(=O)[C@@H](NC(=O)[C@@H](NC(=O)[C@@H](NC(=O)[C@@H]1CCCN1C(=O)[C@@H]1CCCN1C(=O)[C@H](Cc1c[nH]c2ccccc12)NC(=O)[C@H](Cc1c[nH]c2ccccc12)NC(=O)[C@H](Cc1c[nH]c2ccccc12)NC(=O)[C@@H]1CCCN1)C(C)C)C(C)C)C(C)C)C(=O)NCC(=O)N[C@@H](C)C(=O)N[C@@H](C)C(=O)N[C@@H](CCCNC(=N)N)C(=O)N[C@@H](CCCCN)C(=O)N[C@@H](CCCCN)C(=O)N[C@@H](CCCNC(=N)N)C(=O)N[C@H](C(=O)N[C@@H](CC(C)C)C(=O)N[C@@H](CCCNC(=N)N)C(=O)N[C@@H](CCCCN)C(=O)N[C@@H](CC(N)=O)C(=O)N[C@@H](CC(=O)O)C(=O)N[C@@H](CCCNC(=N)N)C(=O)N[C@@H](CCCCN)C(=O)N[C@@H](CCCCN)C(=O)N[C@@H](CCCNC(=N)N)C(N)=O)[C@@H](C)O` [Sample 4] (H-PWWWPPVVVQQQMLLIGAARKKRTLRKNDRKKR-NH2; N-terminus assumed), the “Cell viability (%)” value is listed as 110.9% in data set [2] (human, 48 h, 12.5 µM) and 102.6% in data set [2] (human, 48 h, 25 µM).
`CC[C@H](C)[C@H](NC(=O)[C@H](CCCNC(=N)N)NC(=O)[C@@H](N)CCSC)C(=O)N[C@@H](Cc1ccccc1)C(=O)N[C@@H](C)C(=O)N[C@H](C(=O)N[C@@H](Cc1ccccc1)C(=O)N[C@H](C(=O)N[C@@H](Cc1ccccc1)C(=O)N[C@@H](CCSC)C(=O)N[C@H](C(=O)N[C@@H](Cc1ccc(O)cc1)C(=O)N[C@@H](Cc1c[nH]c2ccccc12)C(=O)N[C@@H](Cc1c[nH]cn1)C(=O)N[C@@H](CC(C)C)C(=O)N[C@@H](CC(C)C)C(=O)N[C@@H](CC(N)=O)C(=O)N[C@@H](C)C(=O)N[C@@H](CCCCN)C(=O)N[C@@H](CCCCN)C(=O)N[C@@H](CCCNC(=N)N)C(=O)N[C@H](C(=O)N[C@@H](CC(C)C)C(=O)N[C@@H](CCCNC(=N)N)C(=O)N[C@@H](CCCCN)C(=O)N[C@@H](CC(N)=O)C(=O)N[C@@H](CC(=O)O)C(=O)N[C@@H](CCCNC(=N)N)C(=O)N[C@@H](CCCCN)C(=O)N[C@@H](CCCCN)C(=O)N[C@@H](CCCNC(=N)N)C(N)=O)[C@@H](C)O)[C@@H](C)O)[C@@H](C)CC)C(C)C` [Sample 3, reference compound] (H-MRIFAVFIFMTYWHLLNAKKRTLRKNDRKKR-NH2; N-terminus assumed) came in with a viability at 48 h, 12.5 µM in data set [5] of 87.3%. The viability at 48 h, 25 µM in data set [5] is 81.7%. For the same molecule, the “Cell viability (%)” value is given as 67.9% in data set [6] (12.5 µM); 56.7% in data set [6] (25 µM); 106.3% in data set [1] (human, 48 h, 12.5 µM); 87.7% in data set [1] (human, 48 h, 25 µM); 105.4% in data set [2] (human, 48 h, 12.5 µM); 120.6% in data set [2] (human, 48 h, 25 µM). The “Cell viability (%)” value in data set [7] (12.5 µM) worked out at 89.3%; in data set [7] (25 µM) it was 83.7%; in data set [8] (12.5 µM), 100.9%; in data set [8] (25 µM) it was 87.5%.
As for `CC(C)C[C@H](NC(=O)[C@@H](NC(=O)[C@H](CCCNC(=N)N)NC(=O)[C@H](CCCCN)NC(=O)[C@@H](N)CCCCN)[C@@H](C)O)C(=O)N[C@@H](CCCNC(=N)N)C(=O)N[C@@H](CCCCN)C(=O)N[C@@H](CC(N)=O)C(=O)N[C@@H](CC(=O)O)C(=O)N[C@@H](CCCNC(=N)N)C(=O)N[C@@H](CCCCN)C(=O)N[C@@H](CCCCN)C(=O)N[C@@H](CCCNC(=N)N)C(N)=O` [Sample 5, KKRTLRKNDRKKR-CONH2] (H-KKRTLRKNDRKKR-NH2; N-terminus assumed), the “Cell viability (%)” value in data set [2] (human, 48 h, 12.5 µM) stood at 106.7%; in data set [2] (human, 48 h, 25 µM), 106.5%.
